Experimental data: US20230331737A1, “MTORC1 MODULATORS AND USES THEREOF” (Aeovian Pharmaceuticals, Inc., priority 2020, published 2023)

Assays:
mTORC1 = target: T1, mTORC1 (Homo sapiens, UniProt P42345+P62942); test: mTORC1 inhibition in PC-3 cells, AlphaLISA of p70S6K pT389 levels; assay type: cell-based; details: mTORC1 as measured by inhibition of p70S6K pT389 levels, read-out: mTROC1 IC50
T1 construct: endogenous in cells; host or cells: PC-3 cells
Method: mTORC1 inhibition was determined via analysis of phosphorylation levels of Phospho-p70 S6 kinase (p70S6K pT389) and Phospho-S6 Ribosomal Protein (pRPS6 pS240/pS244) with the corresponding AlphaLISA kits (PerkinElmer Alpha SF Ultra™ Multiplex phospho (Thr389)/total p70 S6K Assay Kit (Eu/Tb) and AlphaLISA SF Ultra™ p-Ribosomal Protein S6 (Ser240/244) Assay Kit).
%−activity=100*((Sample−Low control)/(High control−Low control))

[1] = target: FKBP12 ternary complex with FRB (Homo sapiens, UniProt P42345+P62942); test: SPR assay to characterize ternary complex formation with FKBP12 (FRB injected over compound-saturated FKBP12); assay type: binding; details: FRB dilutions with 100 nM test compound over immobilized FKBP12
Method: Biotinylated avi-FKBP12 was immobilized on a streptavidin chip (Cytiva Series S SA) using a Biacore 8K or 8k+ (Cytiva). To achieve an immobilization level of 100 RU, 0.3 μg/ml biotinylated avi-FKBP12 were injected for 80 sec at a flow rate of 10 μl/min. Serial dilution of FRB was prepared (12 concentrations, 3-fold dilutions, 0.00011-20 μM) and supplemented with 100 nM of a test compound. A-B-A injection mode was used to ensure saturation immobilized FKBP12 with respective test compound. 100 nM solution of the respective test compound was injected before FRB injection for 120 sec and during dissociation for 420 sec. The FRB dilutions were then injected 120 seconds contact time with increasing concentrations. Rapamycin was used as reference sample. 50 mM HEPES pH 7.5, 150 mM NaCl, 2 mM MgCl2, 1 mM DTT, 0.05% Tween-20, 1% DMSO was used as running buffer at a flow rate of 30 μl/min. The multi-cycle kinetics data were fit to a 1:1 binding model to measure the association rate ka (1/Ms), the dissociation rate kd (1/s) and the affinity Kd (M). In case of fast association and dissociation, steady state affinity analysis following the law of mass action was used to determine the affinity Kd (M).

FKBP12 = FKBP12 (Homo sapiens, UniProt P62942); test: SPR assay to determine binding affinity to FKBP12 (direct binding); details: immobilized biotinylated avi-FKBP12, single-cycle kinetics
Sequence of FKBP12 (P62942 whole entry, species assumed): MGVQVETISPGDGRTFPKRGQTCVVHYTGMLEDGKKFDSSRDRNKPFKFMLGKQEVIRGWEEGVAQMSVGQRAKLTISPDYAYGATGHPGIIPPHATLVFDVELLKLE
Method: SPR Assay to Determine Binding Affinity to FKBP12.
Biotinylated avi-FKBP12 was immobilized on a streptavidin chip (Cytiva Series S SA) using a Biacore 8K or 8k+ (Cytiva). […] Test compounds described in Table 11 were diluted in DMSO to 100× working concentration. Each test compound was 100-fold diluted in 50 mM HEPES pH 7.5, 150 mM NaCl, 2 mM MgCl2, 1 mM DTT, 0.05% Tween-20 and a serial dilution prepared (9 concentrations, 3-fold dilutions, 0.08-500 nM). […] The compound dilutions were then injected at 100 uL/min for 120 seconds contact time in sequence with increasing concentrations. Dissociation was monitored for 3600 seconds. 50 mM HEPES pH 7.5, 150 mM NaCl, 2 mM MgCl2, 1 mM DTT, 0.05% Tween-20, 1% DMSO was used as running buffer. The single-cycle kinetics data were fit to a 1:1 binding model to measure the association rate ka (1/Ms), the dissociation rate kd (1/s) and the affinity Kd (M).

mTORC2 = mTORC2 (Homo sapiens, UniProt P42345+P62942); test: mTORC2 inhibition in PC3 cells, AlphaLISA of pAKT pS473 levels
Sequence of mTORC2 (P62942 2-108 limits assumed, other chains not shown): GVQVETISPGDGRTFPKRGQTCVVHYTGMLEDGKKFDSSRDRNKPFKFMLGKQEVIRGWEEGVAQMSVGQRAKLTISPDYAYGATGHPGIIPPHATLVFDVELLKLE

With CO[C@@H]1C[C@H](C[C@@H](C)[C@@H]2CC(=O)[C@H](C)/C=C(\C)[C@@H](O)[C@@H](OC)C(=O)[C@H](C)C[C@H](C)/C=C/C=C/C=C(\C)[C@@H](OCC3COC3)C[C@@H]3CC[C@@H](C)[C@@](O)(O3)C(=O)C(=O)N3CCCC[C@H]3C(=O)O2)CC[C@H]1OCCO [Compound 474, (1R,9S,12S,15R,16E,18R,19R,21R,23S,24E,26E,28E,30S,32S,35R)-1,18-dihydroxy-12-[(1R)-2-[(1S,3R,4R)-4-(2-hydroxyethoxy)-3-methoxy-cyclohexyl]-1-methyl-ethyl]-19-methoxy-15,17,21,23,29,35-hexamethyl-30-(oxetan-3-ylmethoxy)-11,36-dioxa-4-azatricyclo[30.3.1.04,9]hexatriaconta-16,24,26,28-tetraene-2,3,10,14,20-pentone] the IC50 (mTORC1) was < 0.8 nM, the Kd [1] was 500 to 1100 nM and the Kd (FKBP12) was 0.3 to 1 nM.
CO[C@@H]1C[C@H](C[C@@H](C)[C@@H]2CC(=O)[C@H](C)/C=C(\C)[C@@H](O)[C@@H](OC)C(=O)[C@H](C)C[C@H](C)/C=C/C=C/C=C(\C)[C@H](OC3CC3)C[C@@H]3CC[C@@H](C)[C@@](O)(O3)C(=O)C(=O)N3CCCC[C@H]3C(=O)O2)CC[C@H]1O [Compound 519, (1R,9S,12S,15R,16E,18R,19R,21R,23S,24E,26E,28E,30R,32S,35R)-30-(cyclopropoxy)-1,18-dihydroxy-12-[(1R)-2-[(1S,3R,4R)-4-hydroxy-3-methoxy-cyclohexyl]-1-methyl-ethyl]-19-methoxy-15,17,21,23,29,35-hexamethyl-11,36-dioxa-4-azatricyclo[30.3.1.04,9]hexatriaconta-16,24,26,28-tetraene-2,3,10,14,20-pentone] was tested, and the IC50 (mTORC1) was < 0.8 nM, the Kd [1] was < 500 nM and the Kd (FKBP12) was < 0.3 nM.
CO[C@@H]1C[C@H](C[C@@H](C)[C@@H]2CC(=O)[C@H](C)/C=C(\C)[C@@H](O)[C@@H](OC)C(=O)[C@H](C)C[C@H](C)/C=C/C=C/C=C(\C)[C@@H](OCCc3ccccc3)C[C@@H]3CC[C@@H](C)[C@@](O)(O3)C(=O)C(=O)N3CCCC[C@H]3C(=O)O2)CC[C@H]1O [Compound 520, (1R,9S,12S,15R,16E,18R,19R,21R,23S,24E,26E,28E,30S,32S,35R)-1,18-dihydroxy-12-[(1R)-2-[(1S,3R,4R)-4-hydroxy-3-methoxy-cyclohexyl]-1-methyl-ethyl]-19-methoxy-15,17,21,23,29,35-hexamethyl-30-(2-phenylethoxy)-11,36-dioxa-4-azatricyclo[30.3.1.04,9]hexatriaconta-16,24,26,28-tetraene-2,3,10,14,20-pentone] was tested, and the IC50 (mTORC1) was < 0.8 nM, the Kd [1] was < 500 nM and the Kd (FKBP12) was > 1 nM.
With CO[C@@H]1C[C@H](C[C@@H](C)[C@@H]2CC(=O)[C@H](C)/C=C(\C)[C@@H](O)[C@@H](OC)C(=O)[C@H](C)C[C@H](C)/C=C/C=C/C=C(\C)[C@@H](OCC3COC3)C[C@@H]3CC[C@@H](C)[C@@](O)(O3)C(=O)C(=O)N3CCCC[C@H]3C(=O)O2)CC[C@H]1O [Compound 521, (1R,9S,12S,15R,16E,18R,19R,21R,23S,24E,26E,28E,30S,32S,35R)-1,18-dihydroxy-12-[(2R)-1-[(1S,3R,4R)-4-hydroxy-3-methoxycyclohexyl]propan-2-yl]-19-methoxy-15,17,21,23,29,35-hexamethyl-30-[(oxetan-3-yl)methoxy]-11,36-dioxa-4-azatricyclo[30.3.1.04,9]hexatriaconta-16,24,26,28-tetraene-2,3,10,14,20-pentone] the IC50 (mTORC1) was < 0.8 nM, the Kd [1] was 500 to 1100 nM and the Kd (FKBP12) was < 0.3 nM.
For CO[C@@H]1C[C@H](C[C@@H](C)[C@@H]2CC(=O)[C@H](C)/C=C(\C)[C@@H](O)[C@@H](OC)C(=O)[C@H](C)C[C@H](C)/C=C/C=C/C=C(\C)[C@@H](OC3COC3)C[C@@H]3CC[C@@H](C)[C@@](O)(O3)C(=O)C(=O)N3CCCC[C@H]3C(=O)O2)CC[C@H]1O [Compound 523, (1R,9S,12S,15R,16E,18R,19R,21R,23S,24E,26E,28E,30S,32S,35R)-1,18-dihydroxy-12-[(2R)-1-[(1S,3R,4R)-4-hydroxy-3-methoxycyclohexyl]propan-2-yl]-19-methoxy-15,17,21,23,29,35-hexamethyl-30-(oxetan-3-yloxy)-11,36-dioxa-4-azatricyclo[30.3.1.04,9]hexatriaconta-16,24,26,28-tetraene-2,3,10,14,20-pentone], the IC50 (mTORC1) was < 0.8 nM, the Kd [1] was > 1100 nM and the Kd (FKBP12) was < 0.3 nM.
In the case of CO[C@@H]1C[C@H](C[C@@H](C)[C@@H]2CC(=O)[C@H](C)/C=C(\C)[C@@H](O)[C@@H](OC)C(=O)[C@H](C)C[C@H](C)/C=C/C=C/C=C(\C)[C@@H](OCCOCCO)C[C@@H]3CC[C@@H](C)[C@@](O)(O3)C(=O)C(=O)N3CCCC[C@H]3C(=O)O2)CC[C@H]1O [Compound 524, (1R,9S,12S,15R,16E,18R,19R,21R,23S,24E,26E,28E,30S,32S,35R)-1,18-dihydroxy-30-[2-(2-hydroxyethoxy)ethoxy]-12-[(1R)-2-[(1S,3R,4R)-4-hydroxy-3-methoxy-cyclohexyl]-1-methyl-ethyl]-19-methoxy-15,17,21,23,29,35-hexamethyl-11,36-dioxa-4-azatricyclo[30.3.1.04,9]hexatriaconta-16,24,26,28-tetraene-2,3,10,14,20-pentone], the IC50 (mTORC1) is reported as < 0.8 nM, the Kd [1] is reported as 500 to 1100 nM and the Kd (FKBP12) is reported as < 0.3 nM.
For CO[C@@H]1C[C@H](C[C@@H](C)[C@@H]2CC(=O)[C@H](C)/C=C(\C)[C@@H](O)[C@@H](OC)C(=O)[C@H](C)C[C@H](C)/C=C/C=C/C=C(\C)[C@@H](OC3CC3)C[C@@H]3CC[C@@H](C)[C@@](O)(O3)C(=O)C(=O)N3CCCC[C@H]3C(=O)O2)CC[C@H]1OCCO [Compound 527, (1R,9S,12S,15R,16E,18R,19R,21R,23S,24E,26E,28E,30S,32S,35R)-30-(cyclopropoxy)-1,18-dihydroxy-12-[(1R)-2-[(1S,3R,4R)-4-(2-hydroxyethoxy)-3-methoxy-cyclohexyl]-1-methyl-ethyl]-19-methoxy-15,17,21,23,29,35-hexamethyl-11,36-dioxa-4-azatricyclo[30.3.1.04,9]hexatriaconta-16,24,26,28-tetraene-2,3,10,14,20-pentone], the IC50 (mTORC1) was < 0.8 nM, the Kd [1] was < 500 nM and the Kd (FKBP12) was 0.3 to 1 nM.
For COCCO[C@H]1C[C@@H]2CC[C@@H](C)[C@@](O)(O2)C(=O)C(=O)N2CCCC[C@H]2C(=O)O[C@H]([C@H](C)C[C@@H]2CC[C@@H](O)[C@H](OC)C2)CC(=O)[C@H](C)/C=C(\C)[C@@H](O)[C@@H](OC)C(=O)[C@H](C)C[C@H](C)/C=C/C=C/C=C/1C [Compound 529, (1R,9S,12S,15R,16E,18R,19R,21R,23S,24E,26E,28E,30S,32S,35R)-1,18-dihydroxy-12-[(1R)-2-[(1S,3R,4R)-4-hydroxy-3-methoxy-cyclohexyl]-1-methyl-ethyl]-19-methoxy-30-(2-methoxyethoxy)-15,17,21,23,29,35-hexamethyl-11,36-dioxa-4-azatricyclo[30.3.1.04,9]hexatriaconta-16,24,26,28-tetraene-2,3,10,14,20-pentone], the IC50 (mTORC1) was < 0.8 nM, the Kd [1] was < 500 nM and the Kd (FKBP12) was < 0.3 nM.
With CO[C@H]1C[C@@H]2CC[C@@H](C)[C@@](O)(O2)C(=O)C(=O)N2CCCC[C@H]2C(=O)O[C@H]([C@H](C)C[C@@H]2CC[C@@H](OCCO)[C@H](OC)C2)CC(=O)[C@H](C)/C=C(\C)[C@@H](O)[C@@H](OC)C(=O)[C@H](C)C[C@H](C)/C=C/C=C/C=C/1C [everolimus] the IC50 (mTORC2) was < 10 nM.
